# Results published in patent publication US20260265055A1, “Sulfine-Based Compounds for Generating Hydrogen Persulfide” (Brown University, priority 2023, published 2026).
# Key:
# [1] = Oxidation of TT to TTS by ROS, UV-Vis (339 nm); format: physicochemical; details: for k2 (TT oxidation rate constant): PBS pH 7.4
# Experimental: TT was treated with H2O2, the most prevalent oxidant in biology. Stock solutions for hydrogen peroxide (H2O2), t-butyl hydroperoxide (^tBuOOH), peracetic acid (AcOOH), and sodium hypochlorite (NaOCl), were prepared in deionized water. H2O2 was diluted from a commercially available solution (30%). The concentration of H2O2 was determined using the absorption at 240 nm (ε=[…]). ^tBuOOH was diluted from commercially available solutions (70%). AcOOH was diluted from commercially available solutions (32%). NaOCl was diluted from commercially available solution containing 11-15% available chlorine. The concentration of HOCl was determined using the absorption at 292 nm (ε=[…]).
# TT was dissolved in DMSO to afford a 10 mM stock solution. For H2O2, ^tBuOOH and AcOOH, substrate TT (10 μM) and ROS (1 mM) were mixed in PBS buffer, pH=7.4 with DMSO (1%) under room temperature. For NaClO, TT (100 μM) and NaClO (1 mM) were mixed in PBS buffer, pH=7.4 with DMSO (1%) under room temperature. The rate of production of TTS was detected by UV-Vis spectrum (λ=339 nm) based on the decrease of TT. A pseudo-first order reaction was assumed; the second-order k constant (k2) was calculated using the method described below.
# (§1) The transformation from TT to TTS was clean. The progress of the reaction was monitored by UV-Vis spectra and the reaction rate constant (k2) was measured to be […]. The oxidation of TT by several other oxidants including t-BuOOH, AcOOH, and OCl^− was measured and the TT oxidation rate constants k2 are summarized in Table 1. ^aThe rate constant was estimated.
# [2] = NMR monitoring of the oxidation of TT to TTS; format: physicochemical; details: TT 20 mM in CD3CN/D2O (1:1) with H2O2, room temperature
# Experimental: To an NMR tube, the solution of TT (0.2 mmol, final concentration is 20 mM) in CD3CN/D2O (1:1) was added, followed by adding H2O2 (10 μM, 20 μM). The NMR tube was shacked immediately and incubated at room temperature for 0 min, 30 min, 3 h, and 24 h.
# as §1
# [3] = SSP4 fluorescence assay to determine generation of H2S2 in buffer; details: SSP4 5 μM
# From the text: To further evaluate the specificity of TTS in converting H2S to H2S2, SSP4 was used to monitor the formation of H2S2 in this reaction and the results were compared with a series of controls. Details of the SSP4 experiments are provided later herein. SSP4 is a well-established fluorescent sensor for sulfane sulfurs including H2S2. See Shieh, M. et al., Shining a light on SSP4: a comprehensive analysis and biological applications for the detection of sulfane sulfurs. Redox Biol. 2022, 56, 102433. […] Without wishing to be bound by scientific theory, it is believed that thiols would compete with SSP4 to react with H2S2, thereby causing decreased signals.
# SSP4 was dissolved in DMSO to obtain a 200 μM stock solution. CTAB was dissolved in ethanol to yield a 2 mM stock solution. TTS and TT were dissolved in DMSO to make 1 mM stock solutions. Na2S, Na2S2, and L-cysteine were prepared in MilliQ H2O to obtain stock solutions at 2 mM, 1 mM, and 4 mM, respectively. 50 mM PBS buffer was added to individual wells of a black polystyrene, flat-bottomed clear 96-well plate, followed by TTS (25 μM) or TT (25 μM), and Na2S (50 μM), cysteine (100 μM), or Na2S2 (25 μM). For the interference assay, TTS or TT (25 μM) were added to wells with or without Na2S (50 μM). Samples were mixed by pipetting up and down and incubated in the dark at room temperature (rt) for 30 min. Next, CTAB (50 μM) was added to all wells followed by SSP4 (5 μM), and samples were mixed by pipetting up and down. The final volume was 200 μL in each well. Samples were then incubated in the dark at room temperature for another 30 min before being measured on a Molecular Devices SpectraMax iD3 Multi-Mode Microplate Reader (emission 525 nm; excitation 485 nm; integration time […], low PMT sensitivity, attenuation 1, read height 1.00 mm).
# HeLa cells = assay: Live cell imaging of H2S2 formation with SSP4; format: cell-based; details: 30 min
# Experimental: HeLa cells were seeded at ~7000 cells/well in a 96-well clear flat-bottomed BioLite plate (ThermoFisher Scientific, #130188) in DMEM/F12 (1:1) (Gibco, Invitrogen, #11330-032) medium supplemented with 10% fetal bovine serum (FBS) at 37° C., 5% CO2 overnight.
# Preparation before cell treatment: Na2S and Na2S2 stocks were prepared at 10 mM in sterile 1×PBS. TTS and TT were prepared at 10 mM concentrations in DMSO. They were then diluted to 50 μM concentrations in serum-free Fluorobrite DMEM in individual Eppendorf tubes (0.5% DMSO). Na2S (final concentration=100 μM) was added to the Eppendorf tube containing Fluorobrite DMEM and TTS or TT immediately before being added to the cells. Compounds were mixed by pipetting up and down prior to cell addition.
# Cell treatment: Culturing media was aspirated from all wells, and cells were washed twice with 1×PBS. Compounds were added to cells (200 μL/well) and incubated for 30 min at 37° C., 5% CO2. While cells were incubating, SSP4 treatment was prepared by first adding 5 mM CTAB in ethanol to Fluorobrite DMEM followed by 6.125 mM SSP4 in DMSO to final concentrations of 100 μM and 5 μM, respectively, in a tube. The final volume was 5 mL (0.08% DMSO). Compounds were mixed by pipetting up and down prior to cell addition. After incubation, media was aspirated, and cells were washed twice with 1×PBS. SSP4 treatment was added to all wells (100 μL/well), and cells were incubated for 30 min at 37° C., 5% CO2 for 30 min. Media was then aspirated, and cells were washed three times with 1×PBS. Fluorobrite DMEM was added to all wells before imaging on the Keyence All-in-One Fluorescence Microscope (BZ-X810) (excitation: 470/40 nm; emission: 525/50 nm).
# As shown in FIGS. 4(A)-(D), HeLa cells were treated with TTS, TTS+H2S, or TT for 30 min before the fluorescent sensor SSP4 was applied to the cells to monitor the formation of H2S2. […] Na2S2 was used as the positive control in this study (FIG. 4D). Other control studies including TT+H2S, H2S only, and SSP4 only were also performed. […] FIG. 4H is a graph of fluorescence intensities of SSP4 staining. Data are mean values ±SEM calculated using ImageJ. (n=9, where three different images were obtained from each of three samples and quantified).
smiles,measurement,setting,value
"COC(=O)c1ccc(=S)sc1 [TT, methyl 2-thioxo-2H-thiopyran-5-carboxylate]",k2 (TT oxidation rate constant),"[1]; ROS AcOOH 1 mM, TT 10 μM",13.9 M⁻¹ s⁻¹
same,k2 (TT oxidation rate constant),"[1]; ROS H2O2 1 mM, TT 10 μM",0.1 M⁻¹ s⁻¹
same,k2 (TT oxidation rate constant),"[1]; ROS OCl^− (NaClO 1 mM), TT 100 μM, rate constant was estimated",>1.0 × 10^3 M^−1 s^−1 a
same,k2 (TT oxidation rate constant),"[1]; ROS ^tBuOOH 1 mM, TT 10 μM",0.01 M⁻¹ s⁻¹
same,reaction rate constant (k2) of TT oxidation by H2O2,"[1]; UV-Vis, TT 10 μM, H2O2 1 mM, PBS pH 7.4, room temperature",0.1 M⁻¹ s⁻¹
same,time to completion of TT to TTS oxidation (NMR),[2],24 h
same,SSP4 fluorescence response (H2S2 formation),"[3]; 25 μM compound + 50 μM Na2S (H2S), PBS",No fluorescence
same,SSP4 fluorescence response (sulfane sulfur formation),[3]; 25 μM compound + 100 μM Cys,No fluorescence
same,SSP4 fluorescence response (H2S2 formation),[3]; 25 μM compound only,No fluorescence
same,SSP4 fluorescence in HeLa cells,HeLa cells; compound 50 μM + Na2S 100 μM,Obvious fluorescence in these samples was not observed
same,SSP4 fluorescence in HeLa cells,HeLa cells; compound only,did not show obvious fluorescence
